{
  "source": "patent US6677302B2",
  "about": "“Compositions and methods for the treatment of viral disorders” (The Trustees of Boston University, priority 1996, dated 2004)",
  "key": {"[1]": {"system": "Fibroblasts (mouse BALB/c-3T3)", "test": "MIC on cell proliferation, 7 days in culture", "format": "cell-based", "protocol": "(§1) The ability of arginine butyrate to induce differentiation has been evaluated and is measured by inhibition of growth, in some of the neoplastic cell types previously reported to be sensitive to (sodium) butyric acid, and found arginine butyrate to be as potent as butyric acid. We have also extended that work to additional cell types and found Arginine Butyrate to induce differentiation in these new cell types. Table 1 lists the cell types tested and the minimum inhibitory concentration (MIC) of sodium butyrate (NaB) and arginine butyrate (ArgB) on these cell lines. The MIC is the lowest dose that prevents all growth over the 7 days that the cells are maintained in culture, that is the minimum dose that prevents an increase in cell number. […] The […] of ArgB and NaB were equivalent on all cell lines tested."}, "[2]": {"system": "Fibroblasts (normal human)", "test": "MIC on cell proliferation, 7 days in culture", "format": "cell-based", "details": "lowest dose that prevents all growth over 7 days", "protocol": "as §1"}, "[3]": {"system": "A549 (non-small cell cancer)", "test": "Survival fraction after 72 hours exposure (MTT assay)", "format": "cell-based, human", "protocol": "(§2) Growth inhibition was measured by the MTT assay. […] PC-3=prostate cancer; A549=non-small cell cancer; OvCar=ovarian cancer; CaCo=colon cancer; MCF-7=breast cancer; and SW900=non-small cell lung cancer."}, "CaCo (colon cancer)": {"system": "CaCo (colon cancer)", "test": "Survival fraction after 72 hours exposure (MTT assay)", "format": "cell-based, human", "protocol": "as §2"}, "[4]": {"system": "EBV-TK mRNA in P3RH1 (EBV B-cell producer line)", "test": "EBV-TK mRNA induction in lymphoma cell lines", "format": "cell-based, human", "details": "12 hours, 3 mM", "protocol": "(§3) Because of arginine butyrate's ability to induce various genes, its ability to induce EBV-TK mRNA in human lymphoma cell lines was evaluated. FIG. 7 provides bar graphs of the basal levels of TK and the levels following 12 hours of incubation with 3 mM arginine butyrate in 3 lymphoma cell lines: X50-7 a latent large cell lymphoma (B cell); P3RH1 an EBV B-cell producer line derived from Burkitt's lymphoma; and Raji a non-producer line derived from a Burkitt's lymphoma. EBV-TK levels were not increased in the EBV non-producer cell line, Raji, which has a high basal level of TK, but were increased approximately 4 fold in an EBV producer cell line and 10 fold in a non-producer cell line."}, "[5]": {"system": "EBV-TK mRNA in Raji (non-producer line)", "test": "EBV-TK mRNA induction in lymphoma cell lines", "format": "cell-based, human", "details": "high basal level of TK, 12 hours, 3 mM", "protocol": "as §3"}, "[6]": {"system": "EBV-TK mRNA in X50-7 (latent large cell lymphoma)", "test": "EBV-TK mRNA induction in lymphoma cell lines", "format": "cell-based, human", "details": "non-producer (latent) line X50-7; 12 hours, 3 mM", "protocol": "as §3"}, "EBV-TK MRNA": {"system": "EBV-TK MRNA", "test": "EBV-TK mRNA dose response experiments", "format": "cell-based", "details": "in vitro", "protocol": "In vitro, peaks induction of EBV-TK plateaus at serum level of around 1 mM. […] Therefore, dose levels up to 2,000 mg/kg/day, were evaluated in an attempt to reach serum levels of 1 mM. Treatment cycles were of 4 week duration, with 3 weeks on treatment and one week off. Patients were given the standard dose of GCV throughout each 21 day course of arginine butyrate, starting, however, on day 0. Arginine butyrate was given by continuous IV infusion at 500 mg/kg/day for 2 days, at 1,000 mg/kg/day for 2 days, at 1,500 mg/kg/day for 2 days, and thereafter at 2,000 mg/kg/day, or as tolerated, for the rest of the 21 day course. Cycle 2 was begun on Day 29. Patients were given a complete tumor evaluation after every course with subsequent cycles emitted unless disease progressed.\nIn some experiments sodium was used instead of arginine to neutralize butyric acid. In dose response experiments, levels of EBV-TK MRNA plateaus at around 1 mM to 3 mM sodium butyrate, inducing levels essentially equivalent to those induced by 1 mM arginine butyrate. […] Similarly, levels of GCV above 30 μM were generally cytocidal to both to EBV+ and EBV− cell lines. Cell lines used were X50-7, a latent EBV+ B-cell lymphoma; Akata, a producer EBV+ Burkitt's lymphoma; HPB-ALL, a T-cell line; and Nalm-6, an EBV− B-cell line. […]"}, "refractory neoplasms": {"system": "refractory neoplasms", "test": "Tumor response in patients with refractory neoplasms", "format": "in vivo, human", "protocol": "Three patients with refractory neoplasms (breast, melanoma, adenocarcinoma, of unknown primary) have been enrolled and completed 1-2 cycles of arginine butyrate as a dose of 500 mg/kg/day over 6-8 hours for 10 days.\nThree patients (with breast cancer, bowel cancer or Hodgkins disease) have completed two cycles of arginine butyrate at a dose of 750 mg/kg/day for 10 days. […] Otherwise, there was no other objective measures of organ progressed after treatment was topped. […] There was a further resolution of the disease during the second cycle. Disease progression was noted one month after second cycle was completed. At 1000 mg/kg/day, 3 patients have been enrolled on study.\nAn inter-group dose-escalation study is being conducted in patients with refractory malignancies. There are 3 patients per group with the dose levels starting at 500 mg/kg/day, and increasing by 250 mg/kg/day per group, if toxicity permits. Doses are given by 8 hour IV infusion, daily, for 5 days times 2 weeks, with weekends off, for a total of 10 days of treatment per cycle."}, "fetal globin mRNA": {"system": "fetal globin mRNA", "test": "Fetal globin mRNA response in patients", "format": "in vivo, human", "details": "β-hemoglobinopathies; IV 500 to 2,000 mg/kg/day, 2-7 weeks", "protocol": "Eleven pediatric and twelve adult patients with β-hemoglobinopathies have been treated with IV arginine butyrate at a starting dose of 500 mg/kg/day for 2-7 weeks. Dose escalation at the rate of 250 mg/kg/day to a maximum of 2,000 mg/kg/day was permitted."}, "SKNSH cells": {"system": "SKNSH cells", "test": "Induction of apoptosis", "format": "cell-based, human", "details": "FIG. 1b"}, "IL-2 receptor": {"system": "IL-2 receptor", "test": "Expression of the IL-2 receptor", "format": "cell-based", "source_text": "The IL-2 receptor is a target for therapies currently under development. For example, antibodies directed to the IL-2 receptor and conjugated to a toxin, are currently being tested in the clinic, and IL-2, itself conjugated to a toxin, is currently being tested in the clinic. […] This increased expression might potentiate the therapies under development."}, "[7]": {"details": "Table 4, 0.5 AB (0.5 mM), 72 hour"}},
  "note": "Marks after values point to notes of the source that are not given here.",
  "data": [
    {"substance": "arginine butyrate", "values": [
      {"measurement": "MIC", "setting": "[1]", "result": ">5,000 μM"},
      {"measurement": "MIC", "setting": "[2]", "result": ">5,000 μM"},
      {"measurement": "Survival Fraction", "setting": "[3]; Table 3, 0.5 AB (0.5 mM), 72 hours", "result": 0.92},
      {"measurement": "Survival Fraction", "setting": "[3]; [7]", "result": "0.76*"},
      {"measurement": "Survival Fraction", "setting": "[3]; Table 4, .05 AB, 72 hour", "result": "0.71*"},
      {"measurement": "Survival Fraction", "setting": "CaCo (colon cancer); Table 3, 1.0 AB (1.0 mM), 72 hours", "result": "0.60*"},
      {"measurement": "Survival Fraction", "setting": "CaCo (colon cancer); [7]", "result": "0.67*"},
      {"measurement": "Survival Fraction", "setting": "CaCo (colon cancer); Table 4, .05 AB, 72 hour", "result": "0.81*"},
      {"measurement": "EBV-TK level increase", "setting": "[4]", "result": "approximately 4 fold"},
      {"measurement": "EBV-TK levels", "setting": "[5]", "result": "not increased"},
      {"measurement": "EBV-TK level increase", "setting": "[6]", "result": "~10", "unit": "fold"},
      {"measurement": "level at which peak induction of EBV-TK plateaus", "setting": "EBV-TK MRNA", "result": "around 1 mM"},
      {"measurement": "objective tumor responses", "setting": "refractory neoplasms; 500 mg/kg/day, three patients, 1-2 cycles", "result": "No objective tumor responses were noted"},
      {"measurement": "stable disease", "setting": "refractory neoplasms; 750 mg/kg/day, after two cycles", "result": "Two patients had stable disease after two cycles"},
      {"measurement": "partial response, reduction in tumor area", "setting": "refractory neoplasms; 750 mg/kg/day, patient with Hodgkin's disease, after first cycle", "result": "> 80", "unit": "%"},
      {"measurement": "response as judged by increase in fetal globin mRNA", "setting": "fetal globin mRNA", "result": "most patients showed response"},
      {"measurement": "apoptosis", "setting": "SKNSH cells", "result": "induces apoptosis"},
      {"measurement": "IL-2 receptor expression", "setting": "IL-2 receptor", "result": "increase expression of the IL-2 receptor"}
    ]}
  ]
}
